Assay results: PubChem BioAssay (NCI)
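Test compounds were applied to cells in 96-well plates for 48 hours at 5 doses. At the GI50, growth is halved. TGI: total growth inhibition.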

Legend:
Assay in all cases: DTP human tumour cell line panel, 48 h
M14 melanoma = test system: M14 melanoma
UO-31 renal = test system: UO-31 renal
COLO 205 colon = test system: COLO 205 colon
T-47D breast = test system: T-47D breast
RPMI-8226 leukemia = test system: RPMI-8226 leukemia
PC-3 prostate = test system: PC-3 prostate
SF-539 CNS = test system: SF-539 CNS
SNB-75 CNS = test system: SNB-75 CNS
ACHN renal = test system: ACHN renal
A549 NSCLC = test system: A549 NSCLC
RXF 393 renal = test system: RXF 393 renal
SNB-19 CNS = test system: SNB-19 CNS
SK-MEL-28 melanoma = test system: SK-MEL-28 melanoma
MCF7 breast = test system: MCF7 breast
SN12C renal = test system: SN12C renal
LOX IMVI melanoma = test system: LOX IMVI melanoma
SW-620 colon = test system: SW-620 colon
BT-549 breast = test system: BT-549 breast
HCT-15 colon = test system: HCT-15 colon
HCC-2998 colon = test system: HCC-2998 colon
MALME-3M melanoma = test system: MALME-3M melanoma
SF-268 CNS = test system: SF-268 CNS
SR leukemia = test system: SR leukemia
OVCAR-5 ovarian = test system: OVCAR-5 ovarian
NCI-H460 lung = test system: NCI-H460 lung
DU-145 prostate = test system: DU-145 prostate
NCI-H522 lung = test system: NCI-H522 lung
SK-MEL-5 melanoma = test system: SK-MEL-5 melanoma
OVCAR-4 ovarian = test system: OVCAR-4 ovarian
HOP-62 NSCLC = test system: HOP-62 NSCLC
OVCAR-8 ovarian = test system: OVCAR-8 ovarian
EKVX NSCLC = test system: EKVX NSCLC
MOLT-4 leukemia = test system: MOLT-4 leukemia
NCI-H23 lung = test system: NCI-H23 lung
TK-10 renal = test system: TK-10 renal
MDA-MB-435 = test system: MDA-MB-435
OVCAR-3 ovarian = test system: OVCAR-3 ovarian
MDA-MB-231 breast = test system: MDA-MB-231 breast
A498 renal = test system: A498 renal
CAKI-1 renal = test system: CAKI-1 renal
CCRF-CEM leukemia = test system: CCRF-CEM leukemia
786-0 renal = test system: 786-0 renal
HCT-116 colon = test system: HCT-116 colon
HT29 colon = test system: HT29 colon
NCI-H226 lung = test system: NCI-H226 lung
NCI/ADR-RES ovarian = test system: NCI/ADR-RES ovarian
IGROV1 ovarian = test system: IGROV1 ovarian
HOP-92 NSCLC = test system: HOP-92 NSCLC
HS 578T breast = test system: HS 578T breast
K-562 leukemia = test system: K-562 leukemia
SK-OV-3 ovarian = test system: SK-OV-3 ovarian
HL-60(TB) leukemia = test system: HL-60(TB) leukemia
SK-MEL-2 melanoma = test system: SK-MEL-2 melanoma
UACC-257 melanoma = test system: UACC-257 melanoma
UACC-62 melanoma = test system: UACC-62 melanoma
U251 CNS = test system: U251 CNS
KM12 colon = test system: KM12 colon

**Q.** Which results are given for C[C@]12CCC(=O)CC1CC[C@@H]1C2CC[C@@]2(C)C1CC[C@@H]2OC(=O)CC[Se][Se]CCC(=O)O[C@H]1CCC2[C@@H]3CCC4CC(=O)CC[C@]4(C)C3CC[C@@]21C (stereo partly drawn)?
**A.** GI50 (M14 melanoma): 2.28 µM; TGI (M14 melanoma): 5.69 µM; GI50 (UO-31 renal): 2.61 µM; TGI (UO-31 renal): 10.7 µM; GI50 (COLO 205 colon): 2.17 µM; TGI (COLO 205 colon): 4.01 µM; GI50 (T-47D breast): 9.1 µM; TGI (T-47D breast): 27.1 µM; GI50 (RPMI-8226 leukemia): 5.03 µM; TGI (RPMI-8226 leukemia): > 100 µM; GI50 (PC-3 prostate): 2.55 µM; TGI (PC-3 prostate): 8.27 µM; GI50 (SF-539 CNS): 3.22 µM; TGI (SF-539 CNS): 10.5 µM; GI50 (SNB-75 CNS): 1.48 µM; TGI (SNB-75 CNS): 3.02 µM; GI50 (ACHN renal): 3.61 µM; TGI (ACHN renal): 13.2 µM; GI50 (A549 NSCLC): 1.94 µM; TGI (A549 NSCLC): 4.39 µM; GI50 (RXF 393 renal): 2.08 µM; TGI (RXF 393 renal): 7.95 µM; GI50 (SNB-19 CNS): 2.25 µM; TGI (SNB-19 CNS): 6.43 µM; GI50 (SK-MEL-28 melanoma): 2.01 µM; TGI (SK-MEL-28 melanoma): 5.05 µM; GI50 (MCF7 breast): 3.85 µM; TGI (MCF7 breast): 12 µM; GI50 (SN12C renal): 1.82 µM; TGI (SN12C renal): 3.75 µM; GI50 (LOX IMVI melanoma): 2.12 µM; TGI (LOX IMVI melanoma): 5.07 µM; GI50 (SW-620 colon): 4.81 µM; TGI (SW-620 colon): 20 µM; GI50 (BT-549 breast): 2.1 µM; TGI (BT-549 breast): 4.52 µM; GI50 (HCT-15 colon): 3.64 µM; TGI (HCT-15 colon): 16 µM; GI50 (HCC-2998 colon): 13.4 µM; TGI (HCC-2998 colon): 31.6 µM; GI50 (MALME-3M melanoma): 1.83 µM; TGI (MALME-3M melanoma): 3.63 µM; GI50 (SF-268 CNS): 1.86 µM; TGI (SF-268 CNS): 3.79 µM; GI50 (SR leukemia): 4.28 µM; TGI (SR leukemia): > 100 µM; GI50 (OVCAR-5 ovarian): 6.5 µM; TGI (OVCAR-5 ovarian): 25.1 µM; GI50 (NCI-H460 lung): 2.84 µM; TGI (NCI-H460 lung): 9.81 µM; GI50 (DU-145 prostate): 2.19 µM; TGI (DU-145 prostate): 5.05 µM; GI50 (NCI-H522 lung): 3.17 µM; TGI (NCI-H522 lung): 10.9 µM; GI50 (SK-MEL-5 melanoma): 1.77 µM; TGI (SK-MEL-5 melanoma): 3.35 µM; GI50 (OVCAR-4 ovarian): 3.51 µM; TGI (OVCAR-4 ovarian): 15.6 µM; GI50 (HOP-62 NSCLC): 2.52 µM; TGI (HOP-62 NSCLC): 5.34 µM; GI50 (OVCAR-8 ovarian): 3.06 µM; TGI (OVCAR-8 ovarian): 9.84 µM; GI50 (EKVX NSCLC): 2.44 µM; GI50 (MOLT-4 leukemia): 4.67 µM; TGI (MOLT-4 leukemia): > 100 µM; GI50 (NCI-H23 lung): 3.63 µM; TGI (NCI-H23 lung): 18.4 µM; GI50 (TK-10 renal): 2.1 µM; TGI (TK-10 renal): 4.79 µM; GI50 (MDA-MB-435): 1.82 µM; TGI (MDA-MB-435): 3.83 µM; GI50 (OVCAR-3 ovarian): 2.73 µM; TGI (OVCAR-3 ovarian): 6.84 µM; GI50 (MDA-MB-231 breast): 1.57 µM; TGI (MDA-MB-231 breast): 3.36 µM; GI50 (A498 renal): 1.76 µM; TGI (A498 renal): 4.15 µM; GI50 (CAKI-1 renal): 1.64 µM; TGI (CAKI-1 renal): 5.09 µM; GI50 (CCRF-CEM leukemia): 3.54 µM; TGI (CCRF-CEM leukemia): > 100 µM; GI50 (786-0 renal): 3.25 µM; TGI (786-0 renal): 9.36 µM; GI50 (HCT-116 colon): 2.01 µM; TGI (HCT-116 colon): 4.16 µM; GI50 (HT29 colon): 2.5 µM; TGI (HT29 colon): 6.01 µM; GI50 (NCI-H226 lung): 2.25 µM; TGI (NCI-H226 lung): 5.79 µM; GI50 (NCI/ADR-RES ovarian): 3.03 µM; TGI (NCI/ADR-RES ovarian): 11.4 µM; GI50 (IGROV1 ovarian): 2.13 µM; TGI (IGROV1 ovarian): 4.3 µM; GI50 (HOP-92 NSCLC): 2.22 µM; TGI (HOP-92 NSCLC): 6.04 µM; GI50 (HS 578T breast): 2.02 µM; TGI (HS 578T breast): 7.79 µM; GI50 (K-562 leukemia): 10 µM; TGI (K-562 leukemia): > 100 µM; GI50 (SK-OV-3 ovarian): 7.15 µM; TGI (SK-OV-3 ovarian): 17.4 µM; GI50 (HL-60(TB) leukemia): 4.15 µM; TGI (HL-60(TB) leukemia): > 100 µM; GI50 (SK-MEL-2 melanoma): 2.67 µM; TGI (SK-MEL-2 melanoma): 5.7 µM; GI50 (UACC-257 melanoma): 2.86 µM; TGI (UACC-257 melanoma): 13 µM; GI50 (UACC-62 melanoma): 2.2 µM; TGI (UACC-62 melanoma): 8.05 µM; GI50 (U251 CNS): 1.91 µM; TGI (U251 CNS): 3.85 µM; GI50 (KM12 colon): 4.09 µM; TGI (KM12 colon): 14.5 µM
